From PubChem BioAssay AID292 (DTP/NCI, 2004)
“And” between values parts separate entries of the source, which are not always exact repeats. Equal values may be shown once. Toxic doses and inconclusive results are not listed.

Tested on: B6C3F1 mice, ip Sarcoma M5076, median survival T/C
Assay: NCI In Vivo Anticancer Drug Screen. Data for tumor model Sarcoma M5076 (intraperitoneal) in B6C3F1 mice
Conditions: endpoint: median survival time, schedule: Q04DX004 (ip), higher = longer survival
Summary of the method: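 Tumour cells were transplanted into mice, compound or vehicle was given, survival of both groups was followed, and the treated figure was expressed over the control figure.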

[1] = dose: 50.0 mg/kg/injection, vehicle: Klucel (hydroxypropylcellulose) (HPC)
[2] = dose: 100.0 mg/kg/injection, vehicle: Klucel (hydroxypropylcellulose) (HPC)
[3] = dose: 200.0 mg/kg/injection, vehicle: Klucel (hydroxypropylcellulose) (HPC)
[4] = dose: 400.0 mg/kg/injection, vehicle: Klucel (hydroxypropylcellulose) (HPC)
[5] = dose: 800.0 mg/kg/injection, vehicle: Klucel (hydroxypropylcellulose) (HPC)
[6] = dose: 50.0 mg/kg/injection, vehicle: saline with Tween-80
[7] = dose: 100.0 mg/kg/injection, vehicle: saline with Tween-80
[8] = dose: 200.0 mg/kg/injection, vehicle: saline with Tween-80
[9] = dose: 400.0 mg/kg/injection, vehicle: saline with Tween-80

**Q.** Which T/C (dose: 6.25 mg/kg/injection, vehicle: saline with Tween-80) does the source give for `C=C(C)[C@H]1Cc2c(ccc3c2O[C@@H]2COc4cc(OC)c(OC)cc4[C@@H]2C3=O)O1` here?
**A.** 98 % of control

**Q.** And the T/C (dose: 12.5 mg/kg/injection, vehicle: saline with Tween-80)?
**A.** 95 % of control

**Q.** And the T/C (dose: 25.0 mg/kg/injection, vehicle: saline with Tween-80)?
**A.** 97 % of control

**Q.** How did the T/C [1] turn out when `N#CC1C(=O)NC(=O)C(C#N)C1c1ccc(C2C(C#N)C(=O)NC(=O)C2C#N)cc1` (stereo not given) was run?
**A.** 100 % of control

**Q.** What about the T/C [2] of the same molecule?
**A.** 97 % of control

**Q.** What about the T/C [3] of the same molecule?
**A.** 100 % of control

**Q.** What about the T/C [4] of the same molecule?
**A.** 96 % of control

**Q.** What about the T/C [5] of the same molecule?
**A.** 100 % of control

**Q.** Which T/C [6] does the source give for `Cc1[nH]c(=O)[nH]c(=O)c1C=O` here?
**A.** 100 % of control

**Q.** And the T/C [7]?
**A.** 101 % of control

**Q.** What about the T/C [8] of the same molecule?
**A.** 98 % of control

**Q.** And the T/C [9]?
**A.** 96 % of control

**Q.** How did the T/C [1] turn out when `CNC(=S)SC1=NS(=O)(=O)c2ccccc2N1` was run?
**A.** 105 % of control

**Q.** And the T/C (dose: 62.0 mg/kg/injection, vehicle: Klucel (hydroxypropylcellulose) (HPC))?
**A.** 102 % of control

**Q.** What about the T/C [2] of the same molecule?
**A.** 103 % of control

**Q.** And the T/C (dose: 104.0 mg/kg/injection, vehicle: Klucel (hydroxypropylcellulose) (HPC))?
**A.** 103 % of control

**Q.** And the T/C (dose: 173.0 mg/kg/injection, vehicle: Klucel (hydroxypropylcellulose) (HPC))?
**A.** 113 % of control

**Q.** What about the T/C [3] of the same molecule?
**A.** 96 % of control

**Q.** What about the T/C [4] of the same molecule?
**A.** 109 % of control

**Q.** With `O=c1[nH]cnc2c1ncn2C1CC2[O][Sn]([c]3ccccc3)([c]3ccccc3)[O]CC2O1` (stereo not given) as the molecule, how does the T/C (dose: 37.5 mg/kg/injection, vehicle: distilled water + Tween-80) read?
**A.** 106 % of control

**Q.** And the T/C (dose: 75.0 mg/kg/injection, vehicle: distilled water + Tween-80)?
**A.** 104 % of control

**Q.** And the T/C (dose: 150.0 mg/kg/injection, vehicle: distilled water + Tween-80)?
**A.** 101 % of control

**Q.** What about the T/C (dose: 300.0 mg/kg/injection, vehicle: distilled water + Tween-80) of the same molecule?
**A.** 105 % of control

**Q.** And the T/C (dose: 600.0 mg/kg/injection, vehicle: distilled water + Tween-80)?
**A.** 110 % of control

**Q.** Which results are given for `CCOc1cc2c(cc1C(C)c1ccc(OC)cc1)OCO2` (stereo not given)?
**A.** T/C (dose: 50.0 mg/kg/injection, vehicle: distilled water + alcohol): 119 % of control; T/C (dose: 100.0 mg/kg/injection, vehicle: distilled water + alcohol): 110 % of control; T/C (dose: 200.0 mg/kg/injection, vehicle: distilled water + alcohol): 123 % of control

**Q.** Which T/C (dose: 86.4 mg/kg/injection, vehicle: Klucel (hydroxypropylcellulose) (HPC)) does the source give for `NC(=S)c1ncn(C2OC(COC=O)C(OC=O)C2OC=O)c1NC=O` (stereo not given) here?
**A.** 182 % of control

**Q.** What about the T/C (dose: 144.0 mg/kg/injection, vehicle: Klucel (hydroxypropylcellulose) (HPC)) of the same molecule?
**A.** 174 % of control

**Q.** And the T/C (dose: 240.0 mg/kg/injection, vehicle: Klucel (hydroxypropylcellulose) (HPC))?
**A.** 184 % of control

**Q.** What about the T/C [4] of the same molecule?
**A.** 168 % of control and 198 % of control

**Q.** What about the T/C (dose: 666.67 mg/kg/injection, vehicle: Klucel (hydroxypropylcellulose) (HPC)) of the same molecule?
**A.** 229 % of control

**Q.** For `COc1cc2c(c3c1c(=O)c1cccc(F)c1n3C)C=CC(C)(C)O2`, which T/C [1] is on record?
**A.** 112 % of control

**Q.** What about the T/C [2] of the same molecule?
**A.** 120 % of control

**Q.** How did the T/C [1] turn out when `CC1C=NNC1=O` (stereo not given) was run?
**A.** 103 % of control

**Q.** And the T/C [2]?
**A.** 101 % of control

**Q.** What about the T/C [3] of the same molecule?
**A.** 121 % of control

**Q.** And the T/C [4]?
**A.** 102 % of control

**Q.** What about the T/C [5] of the same molecule?
**A.** 112 % of control

**Q.** How did the T/C (dose: 62.5 mg/kg/injection, vehicle: DMSO) turn out when `O=C(O)[C@H](Cc1ccccc1)N1C(=O)c2ccccc2C1=O` was run?
**A.** 92 % of control

**Q.** What about the T/C (dose: 125.0 mg/kg/injection, vehicle: DMSO) of the same molecule?
**A.** 110 % of control

**Q.** And the T/C (dose: 250.0 mg/kg/injection, vehicle: DMSO)?
**A.** 100 % of control

**Q.** What does the source list for `Cc1ccc(NN=O)nc1`?
**A.** T/C (dose: 3.13 mg/kg/injection, vehicle: water): 113 % of control; T/C (dose: 6.25 mg/kg/injection, vehicle: water): 113 % of control; T/C (dose: 25.0 mg/kg/injection, vehicle: water): 160 % of control; T/C (dose: 50.0 mg/kg/injection, vehicle: water): 160 % of control

**Q.** For `CCn1c2ccccc2c2cc(N)c(N=Nc3ccc(N(C)C)cc3)cc21`, which T/C (dose: 32.82 mg/kg/injection, vehicle: Klucel (hydroxypropylcellulose) (HPC)) is on record?
**A.** 111 % of control

**Q.** What about the T/C (dose: 65.63 mg/kg/injection, vehicle: Klucel (hydroxypropylcellulose) (HPC)) of the same molecule?
**A.** 93 % of control

**Q.** What about the T/C (dose: 131.25 mg/kg/injection, vehicle: Klucel (hydroxypropylcellulose) (HPC)) of the same molecule?
**A.** 97 % of control

**Q.** What about the T/C (dose: 262.5 mg/kg/injection, vehicle: Klucel (hydroxypropylcellulose) (HPC)) of the same molecule?
**A.** 93 % of control

**Q.** What about the T/C (dose: 525.0 mg/kg/injection, vehicle: Klucel (hydroxypropylcellulose) (HPC)) of the same molecule?
**A.** 90 % of control

**Q.** For `CC1OC2CC(O)C1(O)C1=C2C(O)=C(C(N)=O)C(=N)C1=O` (stereo not given), which T/C (dose: 1.25 mg/kg/injection, vehicle: saline) is on record?
**A.** 108 % of control

**Q.** What about the T/C (dose: 2.5 mg/kg/injection, vehicle: saline) of the same molecule?
**A.** 101 % of control

**Q.** And the T/C (dose: 5.0 mg/kg/injection, vehicle: saline)?
**A.** 100 % of control

**Q.** For `CC(=O)OCc1cc(=O)n(C)c2c3c4c(cc12)c(C)cc(=O)n4CO3`, which T/C (dose: 10.0 mg/kg/injection, vehicle: Klucel (hydroxypropylcellulose) (HPC)) is on record?
**A.** 103 % of control

**Q.** What about the T/C (dose: 20.0 mg/kg/injection, vehicle: Klucel (hydroxypropylcellulose) (HPC)) of the same molecule?
**A.** 112 % of control

**Q.** And the T/C (dose: 40.0 mg/kg/injection, vehicle: Klucel (hydroxypropylcellulose) (HPC))?
**A.** 104 % of control

**Q.** What about the T/C (dose: 80.0 mg/kg/injection, vehicle: Klucel (hydroxypropylcellulose) (HPC)) of the same molecule?
**A.** 111 % of control

**Q.** Which T/C (dose: 25.0 mg/kg/injection, vehicle: Klucel (hydroxypropylcellulose) (HPC)) does the source give for `CCNc1nc(NC(C)C)nc(-c2ccncc2)n1` here?
**A.** 93 % of control

**Q.** What about the T/C [1] of the same molecule?
**A.** 95 % of control

**Q.** And the T/C [2]?
**A.** 95 % of control

**Q.** And the T/C [3]?
**A.** 95 % of control

**Q.** What does the source list for `N#CC1C(=O)NC(=S)NC1c1ccc(C2CC(=O)NC(=S)N2)cc1` (stereo not given)?
**A.** T/C [6]: 93 % of control; T/C [7]: 106 % of control; T/C [8]: 94 % of control; T/C [9]: 90 % of control; T/C (dose: 800.0 mg/kg/injection, vehicle: saline with Tween-80): 92 % of control

**Q.** With `Nc1nc(=O)nc2[nH]c3c4cccc5cccc(c3nc12)c54` (tested in a mixture with another compound) as the molecule, how does the T/C (dose: 18.75 mg/kg/injection, vehicle: Klucel (hydroxypropylcellulose) (HPC)) read?
**A.** 104 % of control

**Q.** What about the T/C (dose: 37.5 mg/kg/injection, vehicle: Klucel (hydroxypropylcellulose) (HPC)) of the same molecule?
**A.** 102 % of control

**Q.** What about the T/C (dose: 75.0 mg/kg/injection, vehicle: Klucel (hydroxypropylcellulose) (HPC)) of the same molecule?
**A.** 104 % of control

**Q.** And the T/C (dose: 150.0 mg/kg/injection, vehicle: Klucel (hydroxypropylcellulose) (HPC))?
**A.** 98 % of control

**Q.** And the T/C (dose: 300.0 mg/kg/injection, vehicle: Klucel (hydroxypropylcellulose) (HPC))?
**A.** 94 % of control

**Q.** What does the source list for `CC(=O)C1C(=O)C(=O)N(Cc2ccccc2)C1=O` (stereo not given)?
**A.** T/C (dose: 46.88 mg/kg/injection, vehicle: Klucel (hydroxypropylcellulose) (HPC)): 98 % of control; T/C (dose: 93.75 mg/kg/injection, vehicle: Klucel (hydroxypropylcellulose) (HPC)): 95 % of control; T/C (dose: 187.5 mg/kg/injection, vehicle: Klucel (hydroxypropylcellulose) (HPC)): 99 % of control; T/C (dose: 375.0 mg/kg/injection, vehicle: Klucel (hydroxypropylcellulose) (HPC)): 98 % of control

**Q.** For `O=S(=O)(O)c1cc(N=C=S)ccc1/C=C/c1ccc(N=C=S)cc1S(=O)(=O)O`, which T/C (dose: 25.0 mg/kg/injection, vehicle: saline) is on record?
**A.** 100 % of control

**Q.** What about the T/C (dose: 50.0 mg/kg/injection, vehicle: saline) of the same molecule?
**A.** 103 % of control

**Q.** And the T/C (dose: 100.0 mg/kg/injection, vehicle: saline)?
**A.** 110 % of control

**Q.** And the T/C (dose: 200.0 mg/kg/injection, vehicle: saline)?
**A.** 112 % of control
